Data from patent publication US20260042762A1 (Kymera Therapeutics, Inc., priority 2018, published 2026).
Counter-ions that a name gives are not always drawn. Like-named read-outs stand apart in the source and are kept apart here.

Legend:
[1] = molecular target: T1, MerTK (Mus musculus, UniProt Q60805); test: MerTK degradation in RAW264 cells (Western blot); format: cell-based; conditions: RAW264.7, 0.001-1 μM, 4 hour-incubation at 37° C., read-out: RAW264 Max % MerTK Degradation
T1 construct: endogenous in cells; host or cells: RAW264 cells
T1 sequence (Q60805 19-994): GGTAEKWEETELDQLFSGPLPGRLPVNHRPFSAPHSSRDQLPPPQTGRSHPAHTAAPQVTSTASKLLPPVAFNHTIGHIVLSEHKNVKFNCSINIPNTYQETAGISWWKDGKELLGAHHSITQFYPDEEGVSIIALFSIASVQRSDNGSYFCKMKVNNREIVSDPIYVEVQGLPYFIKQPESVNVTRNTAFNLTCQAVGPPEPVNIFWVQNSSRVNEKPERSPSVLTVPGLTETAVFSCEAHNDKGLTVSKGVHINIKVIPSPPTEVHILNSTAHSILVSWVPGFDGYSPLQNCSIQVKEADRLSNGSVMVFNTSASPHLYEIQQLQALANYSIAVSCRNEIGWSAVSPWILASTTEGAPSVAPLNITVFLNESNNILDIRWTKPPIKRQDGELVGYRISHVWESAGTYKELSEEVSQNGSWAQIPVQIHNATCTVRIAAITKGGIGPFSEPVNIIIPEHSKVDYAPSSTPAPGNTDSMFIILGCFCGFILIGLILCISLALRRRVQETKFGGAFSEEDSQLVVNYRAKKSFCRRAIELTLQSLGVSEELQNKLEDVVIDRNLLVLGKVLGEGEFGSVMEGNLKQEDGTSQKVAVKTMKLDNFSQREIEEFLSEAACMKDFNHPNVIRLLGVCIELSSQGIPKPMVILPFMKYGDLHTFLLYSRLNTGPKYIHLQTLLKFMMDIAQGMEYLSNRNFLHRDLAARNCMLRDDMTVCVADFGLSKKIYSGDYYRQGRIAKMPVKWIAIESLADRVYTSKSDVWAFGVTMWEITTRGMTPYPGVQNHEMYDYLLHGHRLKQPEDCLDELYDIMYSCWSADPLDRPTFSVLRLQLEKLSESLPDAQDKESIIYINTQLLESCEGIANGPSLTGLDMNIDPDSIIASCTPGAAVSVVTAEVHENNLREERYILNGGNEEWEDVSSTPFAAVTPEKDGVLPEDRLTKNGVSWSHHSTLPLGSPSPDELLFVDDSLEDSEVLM
Description: Compounds were reconstituted in DMSO to make 10 mM stock solutions. RAW264 cells were maintained in DMEM medium containing 10% FBS. Cells were seeded into 6-well plates with 2×10^6 cells per well. 2 μL of diluted compounds were added to cells to the final concentration of 0.001-1 μM. After a 4 hour-incubation at 37° C., cells were washed with DPBS (1×) once. Then RIPA lysis buffer with Halt Protease and Phosphatase Inhibitor Cocktail was added directly to the cells and cells were then incubated on ice for 10 min, then lysate was harvested into 1.5 mL Eppendorf tubes and centrifuged at 14,000 rpm for 10 min at 4° C. and the supernatants were collected for Western blots.
The protein concentration of cell lysates was quantified with Pierce™ BCA Protein Assay Kit. […] BCA working reagents were prepared by mixing BCA reagent A with reagent B in 50: 1 ratio. 200 μL of the BCA working reagents were added to 25 μL of BCA standard or cell lysates in microplate, and mixed thoroughly on a plate shaker for 30 seconds. After incubation at 37° C. for 30 min, the absorbance of samples at 562 nm were measured with EnVision Plate Reader.
Protein lysates were prepared in NuPAGE™ LDS sample buffer and NuPAGE™ sample reducing agent, and incubated at 95° C. for 5 min. […] The proteins were transferred to low fluorescence PVDF membranes using the Trans-Blot Turbo Transfer System. Membranes were then blocked in Odyssey blocking buffer at RT for 1 h followed by primary incubation at 4° C. overnight. The primary antibodies were MerTK goat polyclonal antibody and actin mouse monoclonal antibody. Membranes were washed three times with TBST (1×), and then incubated with IR Dye 800 CW Donkey anti-goat and IR Dye 700 CW Goat anti-mouse secondary antibodies in 1:10,000 dilution at RT for 1 h. The Western blot images were obtained using Odyssey Imaging System.

[2] = molecular target: T2, MerTK (Homo sapiens, UniProt Q12866); test: MerTk degradation in Jurkat cells (Western blot); format: cell-based; conditions: 0.001-1 μM, 4 hour-incubation at 37° C., read-out: Jurkat Max % MerTK Degradation
T2 construct: endogenous in cells; host or cells: Jurkat cells
T2 sequence (Q12866 21-999): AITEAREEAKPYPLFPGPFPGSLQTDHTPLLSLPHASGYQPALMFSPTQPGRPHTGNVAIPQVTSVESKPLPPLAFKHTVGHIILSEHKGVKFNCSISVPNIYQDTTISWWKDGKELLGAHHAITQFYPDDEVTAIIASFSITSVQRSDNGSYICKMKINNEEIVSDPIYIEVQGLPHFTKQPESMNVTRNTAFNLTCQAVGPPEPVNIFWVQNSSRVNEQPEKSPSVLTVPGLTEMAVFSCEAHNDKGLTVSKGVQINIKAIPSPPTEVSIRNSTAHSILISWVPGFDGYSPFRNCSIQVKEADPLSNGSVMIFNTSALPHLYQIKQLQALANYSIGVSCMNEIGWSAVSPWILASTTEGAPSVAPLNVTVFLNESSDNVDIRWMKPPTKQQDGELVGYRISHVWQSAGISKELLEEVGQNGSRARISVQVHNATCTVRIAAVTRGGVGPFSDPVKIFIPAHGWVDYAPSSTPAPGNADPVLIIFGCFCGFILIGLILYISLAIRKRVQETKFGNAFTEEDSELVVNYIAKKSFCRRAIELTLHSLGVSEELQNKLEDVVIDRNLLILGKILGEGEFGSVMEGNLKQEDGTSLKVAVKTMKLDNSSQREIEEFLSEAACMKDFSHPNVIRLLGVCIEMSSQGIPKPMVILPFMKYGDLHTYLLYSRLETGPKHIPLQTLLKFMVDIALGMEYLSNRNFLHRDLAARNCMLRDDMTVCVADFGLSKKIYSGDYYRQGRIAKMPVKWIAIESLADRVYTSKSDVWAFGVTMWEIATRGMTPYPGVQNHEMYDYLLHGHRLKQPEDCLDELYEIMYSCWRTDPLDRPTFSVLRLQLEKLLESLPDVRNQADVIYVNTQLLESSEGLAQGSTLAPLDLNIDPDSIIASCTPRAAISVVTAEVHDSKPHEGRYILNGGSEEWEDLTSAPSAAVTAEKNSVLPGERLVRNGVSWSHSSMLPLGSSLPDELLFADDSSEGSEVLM
Summary of the method: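 MerTK degradation was read by near-infrared Western blot, normalized to actin, in BCA-quantified lysates of Jurkat cells exposed to 0.001-1 μM compound for 4 h at 37 °C.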

Structure (SMILES)	Dmax [1]	Dmax ([2]; Jurkat, 4 h)	Dmax [2]
Cc1ccc(CNc2ncc3c(-c4ccc(CN5CCN(CCOCCOCCOCCOCCNc6cccc7c6C(=O)N(C6CCC(=O)NC6=O)C7=O)CC5)cc4)cn([C@H]4CC[C@H](O)CC4)c3n2)cc1 (stereo partly drawn) [I-26, 2-(2,6-Dioxopiperidin-3-yl)-4-[15-(4-[[4-(2-[[(4-methylphenyl)methyl]amino]-7-[trans-4-hydroxycyclohexyl]-7H-pyrrolo[2,3-d]pyrimidin-5-yl)phenyl]methyl]piperazin-1-yl)-4,7,10,13-tetraoxa-1-azapentadecan-1-yl]-2,3-dihydro-1H-isoindole-1,3-dione formate]	> 50%	> 50%	–
CCCCNc1ncc2c(-c3ccc(S(=O)(=O)N4CCN(CCOCCOCCOCCOCCCc5ccc6c(c5)n(C)c(=O)n6C5CCC(=O)NC5=O)CC4)cc3)cn([C@H]3CC[C@H](O)CC3)c2n1 (stereo partly drawn) [I-12, 3-(5-(1-(4-(4-(2-(Butylamino)-7-(trans-4-hydroxycyclohexyl)-7H-pyrrolo [2,3-d]pyrimidin-5-yl)phenylsulfonyl)piperazin-1-yl)-3,6,9,12-tetraoxapentadecan-15-yl)-3-methyl-2-oxo-2,3-dihydrobenzo[d]imidazol-1-yl)piperidine-2,6-dione]	> 50%	> 50%	–
CCCCNc1ncc2c(-c3ccc(CN4CCN(CCOCCOCCOCCOCCNc5cccc6c5n(C)c(=O)n6C5CCC(=O)NC5=O)CC4)cc3)nn([C@H]3CC[C@H](O)CC3)c2n1 (stereo partly drawn) [I-37, trans-3-(4-[15-[4-([4-[6-(butylamino)-1-[4-hydroxycyclohexyl]-1H-pyrazolo[3,4-d]pyrimidin-3-yl]phenyl]methyl)piperazin-1-yl]-4,7,10,13-tetraoxa-1-azapentadecan-1-yl]-3-methyl-2-oxo-2,3-dihydro-1H-1,3-benzodiazol-1-yl)piperidine-2,6-dione]	> 50%	> 50%	–
CCCCNc1ncc2c(-c3ccc(S(=O)(=O)N4CCN(C(=O)NCCOCCCOCCNc5cccc6c5C(=O)N(C5CCC(=O)NC5=O)C6=O)CC4)cc3)nn([C@H]3CC[C@H](O)CC3)c2n1 (stereo partly drawn) [I-23, 4-((4-(6-(Butylamino)-1-(trans-4-hydroxycyclohexyl)-1H-pyrazolo[3,4-d]pyrimidin-3-yl)phenyl)sulfonyl)-N-(2-(3-(2-((2-(2,6-dioxopiperidin-3-yl)-1,3-dioxoisoindolin-4-yl)amino)ethoxy)propoxy)ethyl)piperazine-1-carboxamide]	20 to 50%	> 50%	–
CCCCNc1ncc2c(-c3ccc(CNCCCOCCCOCCCc4cccc5c4n(C)c(=O)n5C4CCC(=O)NC4=O)cc3)cn([C@H]3CC[C@H](O)CC3)c2n1 (stereo partly drawn) [I-6, Trans-3-[4-[3-(3-[3-[([4-[2-(butylamino)-7-[4-hydroxycyclohexyl]-7H-pyrrolo[2,3-d]pyrimidin-5-yl]phenyl]methyl)amino]propoxy]propoxy)propyl]-3-methyl-2-oxo-2,3-dihydro-1H-1,3-benzodiazol-1-yl]piperidine-2,6-dione]	> 50%	–	> 50%
CCCCNc1ncc2c(-c3ccc(S(=O)(=O)N4CCN(C(=O)NCCCOCCCNc5cccc6c5C(=O)N(C5CCC(=O)NC5=O)C6=O)CC4)cc3)nn([C@H]3CC[C@H](O)CC3)c2n1 (stereo partly drawn) [I-20, 4-((4-(6-(Butylamino)-1-(trans-4-hydroxycyclohexyl)-1H-pyrazolo[3,4-d]pyrimidin-3-yl)phenyl)sulfonyl)-N-(3-(3-((2-(2,6-dioxopiperidin-3-yl)-1,3-dioxoisoindolin-4-yl)amino)propoxy)propyl)piperazine-1-carboxamide]	> 50%	> 50%	–
COCCNc1ncc2c(-c3ccc(CN4CCN(CCOCCOCCOCCOCCNc5cccc6c5C(=O)N(C5CCC(=O)NC5=O)C6=O)CC4)cc3)cn([C@H]3CC[C@H](O)CC3)c2n1 (stereo partly drawn) [I-15, 2-(2,6-Dioxopiperidin-3-yl)-4-(15-[4-[(4-[2-[(2-methoxyethyl)amino]-7-[trans-4-hydroxycyclohexyl]-7H-pyrrolo[2,3-d]pyrimidin-5-yl]phenyl)methyl]piperazin-1-yl]-4,7,10,13-tetraoxa-1-azapentadecan-1-yl)-2,3-dihydro-1H-isoindole-1,3-dione diformate]	20 to 50%	> 50%	–
CCCCNc1ncc2c(-c3ccc(S(=O)(=O)N4CCN(C(=O)CCCCCCCCCCNC(=O)COc5cccc6c5C(=O)N(C5CCC(=O)NC5=O)C6=O)CC4)cc3)nn([C@H]3CC[C@H](O)CC3)c2n1 (stereo partly drawn) [I-28, N-(11-(4-((4-(6-(Butylamino)-1-(trans-4-hydroxycyclohexyl)-1H-pyrazolo[3,4-d]pyrimidin-3-yl)phenyl)sulfonyl)piperazin-1-yl)-11-oxoundecyl)-2-((2-(2,6-dioxopiperidin-3-yl)-1,3-dioxoisoindolin-4-yl)oxy)acetamide]	> 50%	> 50%	–
